Assay results as given in paper PMC10285409, “Identification and validation of G protein-coupled receptors modulating flow-dependent signaling pathways in vascular endothelial cells” (Frontiers in Molecular Biosciences, 2023).

Biological target: T1, LGR4 (Homo sapiens, UniProt Q9BXB1)
T1 sequence (Q9BXB1 25-951): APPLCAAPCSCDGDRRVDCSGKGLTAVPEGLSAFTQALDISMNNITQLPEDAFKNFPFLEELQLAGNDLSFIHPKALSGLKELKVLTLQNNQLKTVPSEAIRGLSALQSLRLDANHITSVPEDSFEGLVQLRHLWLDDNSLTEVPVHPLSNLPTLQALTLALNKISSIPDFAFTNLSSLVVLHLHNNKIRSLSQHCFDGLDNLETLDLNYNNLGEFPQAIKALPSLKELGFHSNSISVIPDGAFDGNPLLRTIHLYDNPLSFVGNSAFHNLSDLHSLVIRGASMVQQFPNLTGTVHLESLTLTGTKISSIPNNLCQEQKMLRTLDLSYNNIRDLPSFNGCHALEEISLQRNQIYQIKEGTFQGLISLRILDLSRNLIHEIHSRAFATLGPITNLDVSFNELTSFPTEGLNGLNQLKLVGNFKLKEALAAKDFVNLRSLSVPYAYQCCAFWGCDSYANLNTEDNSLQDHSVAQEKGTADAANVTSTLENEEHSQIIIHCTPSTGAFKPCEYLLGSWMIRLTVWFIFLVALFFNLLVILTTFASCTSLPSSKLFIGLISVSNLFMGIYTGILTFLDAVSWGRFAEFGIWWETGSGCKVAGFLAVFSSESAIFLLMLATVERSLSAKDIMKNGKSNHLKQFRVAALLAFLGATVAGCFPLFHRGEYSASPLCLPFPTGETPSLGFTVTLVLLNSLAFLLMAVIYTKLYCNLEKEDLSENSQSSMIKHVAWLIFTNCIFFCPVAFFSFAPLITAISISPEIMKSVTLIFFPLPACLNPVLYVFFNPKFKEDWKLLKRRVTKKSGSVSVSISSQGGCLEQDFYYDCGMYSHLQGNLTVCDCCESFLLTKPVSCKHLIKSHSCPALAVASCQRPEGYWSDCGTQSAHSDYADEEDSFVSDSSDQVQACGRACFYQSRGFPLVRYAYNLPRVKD
Test: beta-arrestin recruitment enzyme complementation in CHO-K1 LGR4 cells; KLF2-luciferase activity lost on LGR4 knockdown
Type: cell-based

Row | EC50 | Structure (SMILES)
1 | 27 µM | CCCCN(Cc1ccc(-c2ccccc2-c2nnn[nH]2)cc1)C(=O)NCc1ccc(Cl)cc1 [Compound 1]
2 | 5 µM | CCCCOC(=O)c1c(Cl)nc(CCCC)n1Cc1cccc2c1ccn2-c1ccccc1-c1nn[nH]n1 [Compound 2]
